“Also recorded” adds a separate entry of the source.
What was measured:
E. coli 70S ribosome = assay: Cryo-EM of PamB2-stalled ribosome complexes; format: binding; details: 50 µM
Procedure: PamB2-ribosome complexes were generated by in vitro transcription–translation reactions in PURExpress in vitro protein synthesis system (New England Biolabs) with the same reaction mix as described earlier in the toeprinting assays. Complex formation reactions were carried out on MLIFstop toeprint DNA template in a 48 µl of reaction in presence of 50 µM PamB2. The reaction was incubated for 15 min at 37 °C. The reaction volume was then split: 42 µl were used for complex generation and 6 µl were used for toeprinting analysis. Ribosome complexes were isolated by centrifugation in 900 µl of sucrose gradient buffer (containing 40% sucrose, 50 mM HEPES-KOH, pH 7.4, 100 mM KOAc, 25 mM Mg(OAc)2 and 6 mM 2-mercaptoethanol) for 3 h at 4 °C with 80,000g in a Optima Max-XP Tabletop Ultracentrifuge with a TLA 120.2 rotor. The pelleted complex was resuspended in Hico buffer (50 mM HEPES-KOH, pH 7.4, 100 mM KOAc, 25 mM Mg(OAc)2) supplemented with 50 µM PamB2, then incubated for 15 min at 37 °C.
Sample volumes of 3.5 μl (eight at an optical density of 260 nm per milliliter) were applied to grids (Quantifoil, Cu, 300 mesh, R3/3 with 3-nm carbon) that had been freshly glow-discharged using a GloQube (Quorum Technologies) in negative charge mode at 25 mA for 90 s. Sample vitrification was performed using an ethane-propane mixture (37:63) in a Vitrobot Mark IV (Thermo Fisher Scientific), the chamber was set to 4 °C and 100% relative humidity and blotting was done for 3 s with no drain or wait time. Frozen cryo-EM grids were imaged on a TFS 300 kV Titan Krios at the Dubochet Center for Imaging EPFL (Lausanne, Switzerland). Images were collected on Falcon IV direct detection camera in counting mode using the EPU and AFIS data collection scheme with a magnification of ×96,000 and a total dose of 60 electrons per square angstrom (e^−/Å^2) for each exposure, and defocus ranging from −0.4 to −0.9 μm. In total, 7,638 videos were produced in EER format at a pixel size of 0.8 Å per pixel.
RELION v.4.0.1 (ref. [46]) was used for processing, unless otherwise specified. For motion correction, RELION’s implementation of MotionCor2 with 4×4 patches and for initial contrast transfer function (CTF) estimation CTFFIND v.4.1.14 (ref. [47]) was used. From 7,638 micrographs, 611,189 particles were picked using crYOLO v.1.8.04b47 with a general model. Then 562,816 ribosome-like particles were selected after two-dimensional classification and extracted at three times decimated pixel size (2.4 Å per pixel) (Supplementary Fig. 1b,c). An initial three-dimensional (3D) refinement was done using a E. coli 70S reference map (EMD-12573)[30]. […]

[1] = system: EF-G-dependent translocation on the ribosome; assay: Translocation assay (toeprinting, MFKAFK template); format: biochemical; details: EF-G present; tRNAfMet in P-site, N-AcPhe-tRNAPhe in A-site; in duplicate
Procedure: Translocation assays were performed as previously described[22] using the MFKAFK template[45] (Supplementary Table 2). Reactions were prepared by incubating tight-coupled ribosomes (0.7 µM) with mRNA (0.5 µM) and tRNAi^Met (1 µM) for 20 min at 37 °C in the Pure System Buffer (5 mM potassium phosphate (pH 7.3), 9 mM Mg(OAc)2, 95 mM potassium glutamate, 5 mM NH4Cl, 0.5 mM CaCl2, 1 mM spermidine, 8 mM putrescine and 1 mM dithiothreitol) and for additional 10 min at 37 °C with 2 μM of N-acetyl-Phe-tRNA^Phe. At the time of N-acetyl-Phe-tRNA^Phe addition, the reactions were supplemented with PamB2 or negamycin as specified. The translocation reaction was initiated by addition of 1 µl of EF-G–GTP mixture (1.2 µM and 3.2 mM). After 5 min of incubation at 30 °C, 2 µl of reverse transcriptase and/or dNTPs mixture was added. The reactions were stopped after another 5 min at 30 °C by addition of 200 µl of the stop buffer and subsequent phenol extraction. The obtained complementary DNA was precipitated in ethanol for subsequent gel electrophoresis.

[2] = system: Escherichia coli in vitro translation; details: E. coli in vitro translation, cited from earlier work
Description: The accordance of structural features of paenilamicins with the translation inhibitor edeine (Extended Data Fig. 1c) led to the hypothesis that paenilamicins may also exert their antimicrobial activity by binding to the ribosome and inhibiting protein synthesis. […] The best understood context-specific translation inhibitors are those that target the large subunit, where their inhibitory action is influenced by the sequence of the nascent polypeptide chain being synthesized, for example, macrolides and ketolides[30]–[32] ...

fungi = details: cited from earlier work
Description: In the A-site, PamB2 contacts not only with 16S rRNA nucleotides in h44, but also A1913 from H69 of the 23S rRNA, and, in contrast to the P-site, the compound makes extensive interactions with the A-site tRNA, albeit less with the mRNA codon (Fig. 2c–f). Interactions of PamB2 with the A-site tRNA revolve around nucleotides ct^6A37 and A38, which are located in the anticodon-stem loop, directly adjacent to the anticodon (34CAU36) (Fig. 2e,f). Specifically, three direct hydrogen bonds are possible with A38 (Fig. 2e). Interactions with ct^6A37 are indirect, being mediated by water W6, which is co ...

For paenilamicin B2 [PamB2], the “binding to elongating ribosomes (density)” value (E. coli 70S ribosome; A- and P-site tRNAs (nonrotated) or A/P- and P/E-hybrid tRNAs (rotated), 2.2-2.3 Å) was “additional density located between the A- and P-site tRNAs that could be unambiguously assigned to PamB2; also recorded: binds stably to the small subunit of elongating ribosomes containing A- and P-site transfer RNAs (tRNAs)”, the “binding to initiating ribosomes (density)” value (E. coli 70S ribosome; P-site tRNA only, 2.4 Å) was “No density for PamB2 was evident; also recorded: not to initiating ribosomes bearing only a P-site tRNA” and the “peptide bond formation in PamB2-bound elongation complexes” value (E. coli 70S ribosome; additional density on CCA-end of A-site and A/P-tRNA) was “peptide bond formation has already occurred”. The “binding site on the ribosome” value (E. coli 70S ribosome; cryo-EM) was “located predominantly on the 30S subunit of the 70S ribosome, where it inserts into the cleft between the A- and P-site tRNAs”, the “EF-G dependent translocation (toeprint shift)” value [1] was “little to no shift in the toeprint band” and the “inhibition of in vitro translation / protein synthesis (in words)” value [2] was “potent inhibitor of protein synthesis”. The IC50 ([2]; read-out: half-inhibitory concentration (IC50)) was 400 nM and the antifungal activity (fungi) was “antifungal activity”.

Reference: publication PMC11581978, “Paenilamicins are context-specific translocation inhibitors of protein synthesis” (Nature Chemical Biology, 2024)
